Literature values as cited in PMC3202968 (Journal of the American Chemical Society, 2010).

- pKa: about 7.1
SMILES: Cc1cc(C)nc(N)c1 [2-amino-4,6-dimethylpyridine]
